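Method: 48-hour compound exposure of cells in 96-well plates, five concentrations, linear interpolation of endpoints. TGI: concentration producing complete growth inhibition.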
Key:
Assay in all cases: NCI tumour cell line growth inhibition, 48 h
[1] = system: 786-0 renal
[2] = system: A549 NSCLC
[3] = system: ACHN renal
[4] = system: BT-549 breast
[5] = system: CAKI-1 renal
[6] = system: CCRF-CEM leukemia
[7] = system: COLO 205 colon
[8] = system: DU-145 prostate
[9] = system: EKVX NSCLC
[10] = system: HCC-2998 colon
[11] = system: HCT-116 colon
[12] = system: HCT-15 colon
[13] = system: HL-60(TB) leukemia
[14] = system: HOP-62 NSCLC
[15] = system: HOP-92 NSCLC
[16] = system: HS 578T breast
[17] = system: HT29 colon
[18] = system: IGROV1 ovarian
[19] = system: K-562 leukemia
[20] = system: KM12 colon
[21] = system: LOX IMVI melanoma
[22] = system: M14 melanoma
[23] = system: MALME-3M melanoma
[24] = system: MCF7 breast
[25] = system: MDA-MB-231 breast
[26] = system: MDA-MB-435
[27] = system: MDA-N
[28] = system: MOLT-4 leukemia
[29] = system: NCI-H226 lung
[30] = system: NCI-H23 lung
[31] = system: NCI-H460 lung
[32] = system: NCI-H522 lung
[33] = system: NCI/ADR-RES ovarian
[34] = system: OVCAR-3 ovarian
[35] = system: OVCAR-4 ovarian
[36] = system: OVCAR-5 ovarian
[37] = system: OVCAR-8 ovarian
[38] = system: PC-3 prostate
[39] = system: RPMI-8226 leukemia
[40] = system: RXF 393 renal
[41] = system: SF-268 CNS
[42] = system: SF-295 CNS
[43] = system: SF-539 CNS
[44] = system: SK-MEL-2 melanoma
[45] = system: SK-MEL-28 melanoma
[46] = system: SK-MEL-5 melanoma
[47] = system: SK-OV-3 ovarian
[48] = system: SN12C renal
[49] = system: SNB-19 CNS
[50] = system: SNB-75 CNS
[51] = system: SR leukemia
[52] = system: SW-620 colon
[53] = system: T-47D breast
[54] = system: TK-10 renal
[55] = system: U251 CNS
[56] = system: UACC-257 melanoma
[57] = system: UACC-62 melanoma
[58] = system: UO-31 renal
[59] = system: A498 renal

Work on `Oc1[nH]c2ccccc2c1C1=Nc2ccccc2/C1=N\OCCOC1OCC(O)C(O)C1O` (stereo not given) yielded a TGI [1] greater than 100 µM, a TGI [2] greater than 100 µM and a TGI [3] greater than 100 µM. The TGI [4] was greater than 100 µM, the TGI [5] was greater than 100 µM and the TGI [6] was greater than 100 µM. It also gave a TGI [7] greater than 100 µM, a TGI [8] greater than 100 µM and a TGI [9] greater than 100 µM. It also gave a TGI [10] greater than 100 µM, a TGI [11] greater than 100 µM and a TGI [12] greater than 100 µM. The TGI [13] was greater than 100 µM, the TGI [14] was greater than 100 µM and the TGI [15] was greater than 100 µM. It also gave a TGI [16] greater than 100 µM, a TGI [17] greater than 100 µM and a TGI [18] greater than 100 µM. For the same compound, the TGI [19] was greater than 100 µM, the TGI [20] was greater than 100 µM and the TGI [21] was greater than 100 µM. It also gave a TGI [22] greater than 100 µM, a TGI [23] greater than 100 µM and a TGI [24] greater than 100 µM. For the same compound, the TGI [25] was greater than 100 µM, the TGI [26] was greater than 100 µM and the TGI [27] was greater than 100 µM. The TGI [28] was greater than 100 µM, the TGI [29] was greater than 100 µM and the TGI [30] was greater than 100 µM. For the same compound, the TGI [31] was greater than 100 µM, the TGI [32] was greater than 100 µM and the TGI [33] was greater than 100 µM. The TGI [34] was greater than 100 µM, the TGI [35] was greater than 100 µM and the TGI [36] was greater than 100 µM. It also gave a TGI [37] greater than 100 µM, a TGI [38] greater than 100 µM and a TGI [39] greater than 100 µM. For the same compound, the TGI [40] was greater than 100 µM, the TGI [41] was greater than 100 µM and the TGI [42] was greater than 100 µM. It also gave a TGI [43] greater than 100 µM, a TGI [44] greater than 100 µM and a TGI [45] greater than 100 µM. It also gave a TGI [46] greater than 100 µM, a TGI [47] of 7.99 µM and a TGI [48] greater than 100 µM. The TGI [49] was greater than 100 µM, the TGI [50] was greater than 100 µM and the TGI [51] was greater than 100 µM. It also gave a TGI [52] greater than 100 µM, a TGI [53] greater than 100 µM and a TGI [54] greater than 100 µM. It also gave a TGI [55] greater than 100 µM, a TGI [56] greater than 100 µM and a TGI [57] greater than 100 µM. The TGI [58] was greater than 100 µM.
Compound `CC1(C)CC(=O)c2c(nc3c(ccc4ccccc43)c2-c2ccc(NC(=O)CCC(=O)Nc3ccc(-c4c5c(nc6c4ccc4ccccc46)CC(C)(C)CC5=O)cc3)cc2)C1` has a TGI [1] greater than 100 µM, a TGI [2] greater than 100 µM and a TGI [3] greater than 100 µM. For the same compound, the TGI [4] was greater than 100 µM, the TGI [5] was greater than 100 µM and the TGI [6] was greater than 100 µM. It also gave a TGI [7] greater than 100 µM, a TGI [8] greater than 100 µM and a TGI [9] greater than 100 µM. For the same compound, the TGI [11] was greater than 100 µM, the TGI [12] was greater than 100 µM and the TGI [13] was greater than 100 µM. It also gave a TGI [14] greater than 100 µM, a TGI [15] greater than 100 µM and a TGI [16] greater than 100 µM. It also gave a TGI [17] greater than 100 µM, a TGI [18] greater than 100 µM and a TGI [19] greater than 100 µM. It also gave a TGI [20] greater than 100 µM, a TGI [21] greater than 100 µM and a TGI [22] greater than 100 µM. It also gave a TGI [24] greater than 100 µM, a TGI [25] greater than 100 µM and a TGI [26] greater than 100 µM. The TGI [27] was greater than 100 µM, the TGI [28] was greater than 100 µM and the TGI [29] was greater than 100 µM. The TGI [31] was greater than 100 µM, the TGI [32] was greater than 100 µM and the TGI [33] was greater than 100 µM. It also gave a TGI [34] greater than 100 µM, a TGI [36] greater than 100 µM and a TGI [37] greater than 100 µM. It also gave a TGI [38] greater than 100 µM, a TGI [39] greater than 100 µM and a TGI [40] greater than 100 µM. For the same compound, the TGI [41] was greater than 100 µM, the TGI [42] was greater than 100 µM and the TGI [43] was greater than 100 µM. For the same compound, the TGI [44] was greater than 100 µM, the TGI [45] was greater than 100 µM and the TGI [46] was greater than 100 µM. For the same compound, the TGI [47] was greater than 100 µM, the TGI [48] was greater than 100 µM and the TGI [49] was greater than 100 µM. It also gave a TGI [50] greater than 100 µM, a TGI [51] greater than 100 µM and a TGI [52] greater than 100 µM. The TGI [53] was greater than 100 µM, the TGI [54] was greater than 100 µM and the TGI [55] was greater than 100 µM. It also gave a TGI [56] greater than 100 µM, a TGI [57] greater than 100 µM and a TGI [58] greater than 100 µM.
`Cc1cccc2[nH]c3c(c(O)cc4[nH]c5cccc(C)c5c(=O)c43)c(=O)c12` showed a TGI [1] of 8.03 µM, a TGI [59] greater than 10 µM and a TGI [2] greater than 10 µM. The TGI [3] was greater than 10 µM, the TGI [4] was greater than 10 µM and the TGI [5] was greater than 10 µM. The TGI [6] was greater than 10 µM, the TGI [7] was greater than 10 µM and the TGI [8] was greater than 10 µM. It also gave a TGI [9] greater than 10 µM, a TGI [10] greater than 10 µM and a TGI [11] greater than 10 µM. The TGI [12] was greater than 10 µM, the TGI [13] was greater than 10 µM and the TGI [14] was greater than 10 µM. The TGI [16] was greater than 10 µM, the TGI [17] was greater than 10 µM and the TGI [18] was greater than 10 µM. It also gave a TGI [19] greater than 10 µM, a TGI [20] greater than 10 µM and a TGI [21] greater than 10 µM. The TGI [22] was greater than 10 µM, the TGI [23] was greater than 10 µM and the TGI [24] was greater than 10 µM. The TGI [25] was greater than 10 µM, the TGI [26] was greater than 10 µM and the TGI [27] was greater than 10 µM. For the same compound, the TGI [28] was greater than 10 µM, the TGI [29] was greater than 10 µM and the TGI [30] was 8.5 µM. For the same compound, the TGI [31] was greater than 10 µM, the TGI [32] was greater than 10 µM and the TGI [33] was greater than 10 µM. For the same compound, the TGI [34] was greater than 10 µM, the TGI [35] was greater than 10 µM and the TGI [36] was greater than 10 µM. The TGI [37] was greater than 10 µM, the TGI [38] was greater than 10 µM and the TGI [39] was greater than 10 µM. For the same compound, the TGI [40] was greater than 10 µM, the TGI [41] was greater than 10 µM and the TGI [42] was greater than 10 µM. The TGI [43] was greater than 10 µM, the TGI [44] was greater than 10 µM and the TGI [45] was greater than 10 µM. The TGI [46] was greater than 10 µM, the TGI [47] was greater than 10 µM and the TGI [48] was greater than 10 µM. For the same compound, the TGI [49] was greater than 10 µM, the TGI [50] was greater than 10 µM and the TGI [52] was greater than 10 µM. It also gave a TGI [53] greater than 10 µM, a TGI [54] greater than 10 µM and a TGI [55] greater than 10 µM. The TGI [56] was greater than 10 µM and the TGI [57] was greater than 10 µM.
`COc1ccc(-c2c(-c3ccccc3)c(C)c3ccccn23)cc1` gave a TGI [1] greater than 100 µM, a TGI [59] greater than 100 µM and a TGI [2] greater than 100 µM. The TGI [3] was greater than 100 µM, the TGI [4] was greater than 100 µM and the TGI [5] was greater than 100 µM. For the same compound, the TGI [6] was greater than 100 µM, the TGI [7] was greater than 100 µM and the TGI [8] was greater than 100 µM. For the same compound, the TGI [9] was greater than 100 µM, the TGI [10] was greater than 100 µM and the TGI [11] was greater than 100 µM. The TGI [12] was greater than 100 µM, the TGI [13] was greater than 100 µM and the TGI [14] was greater than 100 µM. The TGI [15] was greater than 100 µM, the TGI [16] was greater than 100 µM and the TGI [17] was greater than 100 µM. The TGI [18] was greater than 100 µM, the TGI [19] was greater than 100 µM and the TGI [20] was greater than 100 µM. It also gave a TGI [21] greater than 100 µM, a TGI [22] greater than 100 µM and a TGI [23] greater than 100 µM. It also gave a TGI [24] greater than 100 µM, a TGI [25] greater than 100 µM and a TGI [26] greater than 100 µM. For the same compound, the TGI [27] was greater than 100 µM, the TGI [28] was greater than 100 µM and the TGI [29] was greater than 100 µM. For the same compound, the TGI [30] was greater than 100 µM, the TGI [31] was greater than 100 µM and the TGI [32] was greater than 100 µM. The TGI [33] was greater than 100 µM, the TGI [34] was greater than 100 µM and the TGI [35] was greater than 100 µM. For the same compound, the TGI [36] was greater than 100 µM, the TGI [37] was greater than 100 µM and the TGI [38] was greater than 100 µM. For the same compound, the TGI [39] was greater than 100 µM, the TGI [42] was greater than 100 µM and the TGI [43] was greater than 100 µM. It also gave a TGI [44] greater than 100 µM, a TGI [45] greater than 100 µM and a TGI [46] greater than 100 µM. For the same compound, the TGI [47] was greater than 100 µM, the TGI [48] was greater than 100 µM and the TGI [49] was greater than 100 µM. It also gave a TGI [50] greater than 100 µM, a TGI [51] greater than 100 µM and a TGI [52] greater than 100 µM. The TGI [53] was greater than 100 µM, the TGI [54] was greater than 100 µM and the TGI [55] was greater than 100 µM. It also gave a TGI [56] greater than 100 µM, a TGI [57] greater than 100 µM and a TGI [58] greater than 100 µM.

Reference: PubChem BioAssay (NCI)
